# Source: patent US20040044304A1, “Local drug delivery using photosensitizer-mediated and electromagnetic radiation enhanced vascular permeability” (priority 2002, published 2004)
# Where two headings read alike, the source gives them in different places.
# Test system: vascular structures in the dorsal window chamber
# Format: in vivo, mice of strain C3H
# Conditions: MRV6401 0.05 mg/kg i.v., red 660 nm-680 nm
# From the text: Male mice of strain C3H (sourced from The Jackson Laboratory, 600 Main Street, Bar Harbor, Me. 04609, USA) weighing between 28-30 grams were surgically implanted with titanium back-pack window chambers in a similar manner to that described in Example 2. A chamber was considered suitable for subsequent studies if microscopic examination of the preparation met the same criteria as those described in Example 2. The intra-vital microscopic studies were undertaken on unsedated animals held in the same Plexiglass tube assembly as that described in Example 2. The intra-vital microscopy was also performed using the same Leitz Dialux 22 microscope fitted with the same objective lenses, and mercury lamp trans- and epi-illumination sources. However, for the studies described in Example 3, the irradiation source was not a DD4 laser, but rather, activation of the photosensitizers was undertaken using narrow band filtered light from the mercury lamp epi-illumination source. Two different wavelength bands were used to activate the photosensitizers, namely green or red light (see Table 5 below). These wavelengths were obtained by use of filter cubes placed in a Leitz Ploemopak illumination system (NcBain Instruments, Inc., 9601 […] Avenue, Chatsworth, Calif., 91311, USA) fitted to the Leitz Dialux 22 microscope. For activation using green light epi-illumination (530 nm-560 nm) the BP 530-560 band pass excitation filter of the Leitz Ploemopak N2 cube (Cat. No. 513-609, E. Leitz Inc., Rockleigh, N.J., 07647, USA) was used. For activation using red light epi-illumination (660 nm-680 nm) a 670DF20 band pass filter (Cat. No., XF1028, Omega Optical Co., Brattleboro, Vt., 05302, USA) fitted in a Leitz Ploemopak cube was used. In all cases, the activation of the photosensitizer was performed in a defined region that was smaller than the total field of tissue contained within the window chamber. The total mouse dorsal tissue contained within the window chambers was a circle of 1.0 cm diameter, corresponding to a total area of approximately 0.785 cm^2. The illumination field of the activating light was a circle of 0.225 cm diameter, corresponding to a total area of approximately 0.040 cm^2. Thus, approximately 5% of the total area of the chamber was directly illuminated. Mice bearing a dorsal window chamber were placed in the Plexiglass restrainer on the microscope stage for pre-treatment evaluation of the vascular structures. Prior to photosensitizer administration, the architecture of the vascular structures in the entire window chamber in all mice was examined using 410 nm filtered blue light from the mercury trans-illumination source of the intra-vital microscope, and the images which were generated were recorded on video tape for subsequent evaluation. The methods for imaging and recording were as described in Example 2. Briefly, the imaging source was a […] mercury arc lamp (Type 307-143.004 from Ernst Leitz Wetzlar GmBH, Germany) which was powered by an HBO 100 power supply (LEP Ltd., Scarsdale, N.Y.). The output from this source was filtered using a #H43157 interference filter (Edmund Scientific, 101 East Gloucester Pike, Barrington, N.J., 08007-1380), to produce a beam of 410 nm light. Typically, the power density of the imaging light was less than 0.6 […]^2. Two or three fields in each chamber were designated as fields of interest and their location recorded for post-treatment evaluation. These fields were chosen such that they were not adjacent to each other, and one of these fields was chosen so that it was within the region of the chamber that was to receive the activating light illumination. Following identification, recording and designation of the fields of interest, mice were injected with either the photosensitizer […] Medical Technologies, 336 Bollay Drive, Santa Barbara, Calif., 93117) formulated in egg yolk phospholipid ([…] Polar Lipids, Inc., 700 Industrial Park Avenue, Alabaster, Ala., 35007), the photosensitizer […]
# [1] = animal #10, 12 J/cm^2, probe 6 min post light irradiation
# [2] = animal #13, 8 J/cm^2, probe administered 24 hr post light irradiation
structure (smiles),measurement,setting,value
"C=Cc1c(C)c2[n]3c1=CC1=NC(=Cc4c(C)c5c([n]4[In]3[Cl])C(=C3N=C(C=2)[C@@H](C)[C@@H]3CCC(=O)OC)CC5=O)C(CC)=C1C [MV6401, indium methyl pyropheophorbide]",TRITC-Dextran in tissue and cells in regions outside the treatment field at 24 hr time point,"animal #8, 12 J/cm^2, 155 kD probe 10 min post light irradiation",no significant fluorescence from TRITC-Dextran
same,Leakage of 155 kD TRITC-Dextran in the treatment field at 24 hr time point,"animal #8, 12 J/cm^2, probe 10 min post light irradiation",significant leakage in region 2
same,"Leakage of secondary probe 150 kD FITC-Dextran from vessels in the treatment field, 20 min post probe","animal #8, 12 J/cm^2, probe administered 24 hr post light irradiation",leakage of FITC from vessels in the treated region 2
same,"Leakage of secondary probe 150 kD FITC-Dextran from vessels outside the treatment field, 20 min post probe","animal #8, 12 J/cm^2, probe administered 24 hr post light irradiation, 0.05 mg/kg",some minimal leakage from the vessels in region 1
same,150 kD FITC-Dextran in tissue and cells surrounding vessels (regions 1 treated and 3) at 24 hr,"animal #10, 12 J/cm^2","pattern was apparent at the 2 hr time point, and at the 24 hr time point there was FITC-Dextran present at high levels"
same,Leakage of 150 kD FITC-Dextran from the treated vessels at 1 hr post probe administration,[1],with significant leakage apparent
same,Leakage of 150 kD FITC-Dextran from vessels outside the treatment field at 1 hr post probe administration,[1],"from the treated vessels in region 1, some minor leakage from vessels in region 3 and no leakage from vessels in region"
same,"2,000 kD FITC-Dextran leakage in tissue and cells outside the treatment field at 24 hr","animal #11, 12 J/cm^2",FITC-Dextran uptake in tissues and cells in this region. The tissue and cells in regions 2 and 3 showed some minor
same,"Leakage of 2,000 kD FITC-Dextran from vessels outside the treatment field at 1 hr","animal #11, 12 J/cm^2, probe 19 min post light irradiation",no leakage from vessels in regions 2 and 3
same,"Leakage of 2,000 kD FITC-Dextran from vessels outside the treatment field at 1 hr","animal #12, 8 J/cm^2, probe 3 min post light irradiation",no leakage from vessels in regions 2 and 3
same,Leakage of secondary probe 155 kD TRITC-Dextran from vessels in the treatment field,"animal #12, 8 J/cm^2, probe administered 24 hr post light irradiation",significant on-going leakage from vessels in region 1
same,"Leakage of secondary probe 2,000 kD FITC-Dextran from vessels in the treatment field",[2],significant on-going leakage from vessels in region 1
same,"Leakage of secondary probe 2,000 kD FITC-Dextran from vessels outside the treatment field",[2],no evidence of on-going leakage
